Source: ChEMBL document CHEMBL3885861, “Open TG-GATES”

Species: Rattus norvegicus
Test: Open TG-GATES - Regimen: Daily Repeat
Assay type: toxicity, organism-based, Sprague-Dawley
Parameters: regimen Daily Repeat, gender Male, age 6 weeks
Details: in vivo, po, 100 mg/kg, route gavage, dose level Middle; for APTT / Bas / Eos / Fbg / Hb / Ht / Lym / MCH / MCHC / MCV / Mono / Neu / PT / Plat / RBC / Ret / WBC: tissue Blood; for KIDNEY_L / KIDNEY_R / KIDNEY_TOTAL: tissue Kidney; for LIVER: tissue Liver; for A/G / ALP / ALT / AST / BUN / CRE / Ca / Cl / DBIL / GLC / IP / K / LDH / Na / PL / RALB / TBIL / TC / TG / TP / gamma-GTP: tissue Plasma

## ClC(Cl)(Cl)Cl [CARBON TETRACHLORIDE]
72 h, time 3 day
  TERMINAL_BW: 216.4 g
  APTT: 20.1 s
  Bas: 0%
  Eos: 1%
  Fbg: 220 mg/dL
  Hb: 13.9 g/dL
  Ht: 40.9%
  Lym: 75%
  MCH: 21.3 pg
  MCHC: 34%
  MCV: 62.6 fL
  Mono: 3.4%
  Neu: 19.6%
  PT: 12.6 s
  Plat: 123.3 x10_4/uL
  RBC: 653.4 x10_4/ul
  Ret: 5.6%
  WBC: 95 x10_2/uL
  KIDNEY_L: 0.9 g
  KIDNEY_R: 0.9 g
  KIDNEY_TOTAL: 1.8 g
  LIVER: 10.9 g
  A/G: 1.5
  ALP: 1153 IU/L
  ALT: 68.6 IU/L
  AST: 164.4 IU/L
  BUN: 13 mg/dL
  CRE: 0.4 mg/dL
  Ca: 10.9 mg/dL
  Cl: 103.4 meq/L
  DBIL: 0.066 mg/dL
  GLC: 184.4 mg/dL
  IP: 7.3 mg/dL
  K: 4 meq/L
  LDH: 279.4 IU/L
  Na: 140 meq/L
  PL: 132.2 mg/dL
  RALB: 3.2 g/dL
  TBIL: 0.1 mg/dL
  TC: 61.6 mg/dL
  TG: 30 mg/dL
  TP: 5.4 g/dL
  gamma-GTP: 1.4 IU/L
[…], time 7 day
  TERMINAL_BW: 247.4 g
  APTT: 19.9 s
  Bas: 0%
  Eos: 1%
  Fbg: 229.6 mg/dL
  Hb: 13.9 g/dL
  Ht: 40.5%
  Lym: 83.4%
  MCH: 21.7 pg
  MCHC: 34.4%
  MCV: 63 fL
  Mono: 3%
  Neu: 12.8%
  PT: 12.1 s
  Plat: 112.3 x10_4/uL
  RBC: 642.2 x10_4/ul
  Ret: 5.8%
  WBC: 127.1 x10_2/uL
  KIDNEY_L: 1.1 g
  KIDNEY_R: 1.1 g
  KIDNEY_TOTAL: 2.2 g
  LIVER: 13.2 g
  A/G: 1.4
  ALP: 942.6 IU/L
  ALT: 53.4 IU/L
  AST: 113.4 IU/L
  BUN: 15.4 mg/dL
  CRE: 0.4 mg/dL
  Ca: 10.6 mg/dL
  Cl: 104.4 meq/L
  DBIL: 0.074 mg/dL
  GLC: 193.8 mg/dL
  IP: 7.6 mg/dL
  K: 4 meq/L
  LDH: 231.2 IU/L
  Na: 141 meq/L
  PL: 142.8 mg/dL
  RALB: 3.2 g/dL
  TBIL: 0.1 mg/dL
  TC: 63.4 mg/dL
  TG: 62.6 mg/dL
  TP: 5.5 g/dL
  gamma-GTP: 1.4 IU/L
[…], time 14 day
  TERMINAL_BW: 301.8 g
  APTT: 22.1 s
  Bas: 0%
  Eos: 0.8%
  Fbg: 217.4 mg/dL
  Hb: 14 g/dL
  Ht: 41.6%
  Lym: 80.2%
  MCH: 20.1 pg
  MCHC: 33.6%
  MCV: 59.6 fL
  Mono: 3.2%
  Neu: 16%
  PT: 12.2 s
  Plat: 113 x10_4/uL
  RBC: 699 x10_4/ul
  Ret: 4%
  WBC: 110.8 x10_2/uL
  KIDNEY_L: 1.1 g
  KIDNEY_R: 1.2 g
  KIDNEY_TOTAL: 2.3 g
  LIVER: 15.1 g
  A/G: 1.6
  ALP: 1040.6 IU/L
  ALT: 106 IU/L
  AST: 165.4 IU/L
  BUN: 15.2 mg/dL
  CRE: 0.4 mg/dL
  Ca: 10.7 mg/dL
  Cl: 104 meq/L
  DBIL: 0.06 mg/dL
  GLC: 184.2 mg/dL
  IP: 7.6 mg/dL
  K: 3.8 meq/L
  LDH: 281.4 IU/L
  Na: 142 meq/L
  PL: 131.2 mg/dL
  RALB: 3.5 g/dL
  TBIL: 0.1 mg/dL
  TC: 64.4 mg/dL
  TG: 38.8 mg/dL
  TP: 5.7 g/dL
  gamma-GTP: 0.8 IU/L
[…], time 28 day
  TERMINAL_BW: 377.7 g
  APTT: 20.8 s
  Bas: 0%
  Eos: 0.6%
  Fbg: 209.4 mg/dL
  Hb: 14.7 g/dL
  Ht: 42.8%
  Lym: 78.4%
  MCH: 18.3 pg
  MCHC: 34.3%
  MCV: 53.4 fL
  Mono: 3.8%
  Neu: 16.8%
  PT: 12.5 s
  Plat: 111.2 x10_4/uL
  RBC: 801.8 x10_4/ul
  Ret: 3%
  WBC: 148.3 x10_2/uL
  KIDNEY_L: 1.3 g
  KIDNEY_R: 1.3 g
  KIDNEY_TOTAL: 2.6 g
  LIVER: 18.2 g
  A/G: 1.4
  ALP: 760.2 IU/L
  ALT: 103.2 IU/L
  AST: 131 IU/L
  BUN: 16 mg/dL
  CRE: 0.5 mg/dL
  Ca: 10.3 mg/dL
  Cl: 102.6 meq/L
  DBIL: 0.072 mg/dL
  GLC: 203.6 mg/dL
  IP: 6.8 mg/dL
  K: 3.8 meq/L
  LDH: 390 IU/L
  Na: 140.8 meq/L
  PL: 122.8 mg/dL
  RALB: 3.4 g/dL
  TBIL: 0.1 mg/dL
  TC: 57 mg/dL
  TG: 32.2 mg/dL
  TP: 5.9 g/dL
  gamma-GTP: 1.2 IU/L
